Reference: patent US7642252B2, “Angiogenesis inhibition by cephalotaxine alkaloids, derivatives, compositions and uses thereof” (Chemgenex Pharmaceuticals, Inc., priority 2002, dated 2010)
Marks after values point to notes of the source that are not given here.

Legend:
[1] = system: chorioallantoic membrane (CAM); assay: Early chicken chorioallantoic membrane (CAM) assay of angiogenesis; type: in vivo; settings: for CAM increase (fold): Day 4 to Day 5
Description: Fertilized chicken eggs (HiChick Breeding Co, Kapunda, South Australia) were incubated for three days at 38° C. On Day 3 the embryos were cracked out of the egg and into a cup made of plastic piping, with plastic film stretched over the top to form a hammock for the egg to be suspended in. Two ml of DMEM containing penicillin and streptomycin was added to each cup prior to the egg being added. A Petri dish on the top maintained sterility. Incubation continued in a humidified 37° C. incubator.
On Day 4 the chorioallantoic membrane (CAM) begins to grow, and pictures were taken of each embryo at ×5 to measure the CAM area using image analysis software (Video Pro 32, Leading Edge Pty Ltd, South Australia). Embryos were then grouped according to their CAM area, with a control embryo in each for comparison. There were four matched embryos, treated with 6.25, 12.5 and 25 ng of homoharringtonine. Grouping is critical as in these early developmental stages changes in the CAM growth are dramatic. Relatively small differences in size on Day 4 translate to large differences in the CAM on Day 5, making it impossible to compare treatments. Substances were applied in methylcellulose discs, which were first dried under vacuum overnight. The methylcellulose discs were applied to the top of the CAM, and at the beginning of treatment were at least three to four-fold bigger than the CAM area, meaning treatment covered the entire CAM surface.
On Day 5 skim milk with contrast medium was injected into the CAM. Pictures were then taken at various levels of magnification up to ×63. Quantitative measurements were made from ×5 pictures. CAM area, and vein and artery lengths were measured using image analysis (Video Pro 32, Leading Edge Pty Ltd, South Australia). Relative vessel lengths were then calculated as the total length/CAM area. Statistical analysis was made using SigmaStat and OneWay ANOVA with p<0.05 as the level of significance.
The normal organization of the CAM is uniform, with the major vein draining towards the left, and the artery branches coming over the edge of the top and bottom of the CAM. FIG. 3 schematically illustrates tracing of the vein and artery branches, as performed for the measurement of vessel lengths.
The angiogenic inhibitor, homoharringtonine, was obtained from ChemGenex Therapeutics, Inc. (Menlo Park, Calif.) and was made to the appropriate concentration in sterile water. […] Homoharringtonine was applied at 6.25, 12.5 and 25 ng (11.3, 22.5 and 45 nM) doses, and compared with water treated controls. Homoharringtonine reduced the growth of the CAM to 42% of the control in the 25 ng treated CAM. […] The vein, artery and total vessel lengths were reduced to 15%, 18% and 17% of control, respectively.

[2] = system: chorioallantoic membrane (CAM); assay: as above; type: in vivo; settings: taxol treated CAM, dose not given
[3] = 6.25 ng, Day 5, mean ± SEM, n = 6
[4] = 25 ng, Day 5, mean ± SEM, n = 6

Row | Compound | CAM increase (fold) ([1]; 6.25 ng, mean ± SEM, n = 6) | Artery length [1, 3] | Relative artery length [1, 3] | Relative total vessel length [1, 3] | Relative vein length [1, 3] | Vein length [1, 3] | Relative artery length ([1]; 12.5 ng, Day 5, mean ± SEM, n = 6) | Embryo lethality ([1]; 25 ng dose) | CAM increase (fold) ([1]; 25 ng, mean ± SEM, n = 6) | Artery length [1, 4] | Total vessel length [1, 4] | Vein length [1, 4] | Embryo lethality ([1]; initial doses (higher than 25 ng, not given)) | Qualitative changes of CAM at higher magnification (FIG. 5) [2]
1 | COC(=O)C[C@](O)(CCCC(C)(C)O)C(=O)O[C@@H]1C(OC)=C[C@]23CCCN2CCc2cc4c(cc2[C@H]13)OCO4 [Homoharringtonine, cephalotaxine, 4-methyl-2-hydroxy-2-(4-hydroxy-4-methylpentyl) butanediocate ester] | 7.0 ± 0.4^a fold | 1573 ± 516 pixels | 31.6 ± 4.5^ab length/CAM area | 63.2 ± 7.7^b length/CAM area | 31.6 ± 4.6^b length/CAM area | 1482 ± 499 pixels | 31.8 ± 3.7^ab length/CAM area | killed one of the smaller embryos | 4.3 ± 0.7^a fold | 551 ± 265^a pixels | 909 ± 396^a pixels | 359 ± 143^a pixels | resulted in the death of the embryos | –
2 | CC(=O)O[C@H]1C(=O)[C@@]2(C)[C@H]([C@H](OC(=O)c3ccccc3)[C@]3(O)C[C@H](OC(=O)[C@H](O)[C@@H](NC(=O)c4ccccc4)c4ccccc4)C(C)=C1C3(C)C)[C@]1(OC(C)=O)CO[C@@H]1C[C@@H]2O [taxol] | – | – | – | – | – | – | – | – | – | – | – | – | – | diffuse leakage of the red blood cells outside the vessels and the skeletons of larger vessels with no remaining blood flow
